Assay results reported in patent US20090156638A1, “Uses of nordihydroguaiaretic acid (NDGA) and derivatives thereof in preventing transmission of sexually transmitted diseases” (priority 2007, published 2009).

Legend:
[1] = system: ICP4 gene of HSV; experiment: Inhibition of HSV ICP4 gene transcription; assay type: cell-based, HSV-1; details: previously determined
Text: (§1) The […] (IE) ICP4 gene of HSV is essential for HSV replication.

[2] = system: Sp1 regulated transcription of HPV E6/E7; experiment: Sp1 regulated HPV E6/E7 transcription, luciferase assays and C3 tumor lines; assay type: cell-based; details: luciferase assays and HPV induced mouse cervical C3 tumor lines
Text: as §1

[3] = system: HSV-1; experiment: Mutation-insensitivity: IC50 against HSV-1 over ten virus passages; assay type: cell-based
Text: In contrast, host factors, unlike viral factors, are under no selective pressure to mutate and are in general structurally invariable. […] Table 1 compares the IC50 of M4N and acyclovir for ten passages.

[4] = system: HPV 16; experiment: HPV inhibition in C33A cells; assay type: cell-based; details: C-33-A, read-out: Inhibitory Concentration (IC50 or EC50)
[5] = Single dose s.c. rabbit irritation study
Procedure: 4 male and 2 female New Zealand White rabbits received single s.c. injections of saline (1 mL), DMSO (1 mL), 20 mg (0.1 mL) M4N, and 200 mg (1 mL) M4N at each of four sites. Mortality, clinical observations, body weights, dermal irritation, gross necropsy findings, and microscopic pathology were evaluated. […] All injection sites were preserved in 10% neutral-buffered formalin (NBF).

[6] = 14-day toxicity study in rats, toxicokinetics; assay type: in vivo; details: for Tmax / Cmax: rat, plasma; for Tmax: 500 mg/kg; for Cmax: Group 10 (500 mg/kg), Day 14
Procedure: The toxicokinetics study consisted of four dose-groups (0, 50, 100, 500 mg/kg) with 6 animals/sex/group. Approximately 0.7 mL of blood was collected from the jugular vein from 3 rats/sex/group rotated in ascending order for each dose group at 0.5, 1, 4, 8, and 12 hours post-dose on Days 1, 7, and 14. Plasma was isolated and analyzed for M4N by HPLC assay.

[7] = 14-day toxicity study in dogs, toxicokinetics; assay type: in vivo, beagle dogs; details: for highest mean plasma concentration: Day 14; for Tmax: read-out: median Tmax
Procedure: Three beagle dogs/sex/group received doses of 0 (0.50 mL/kg DMSO), 10, 50, and 100 mg/kg (0.05, 0.25, 0.5 mL/kg) M4N. Approximately 4 mL of blood was collected from the jugular vein at each sampling time point of 0.5, 1, 4, 8, and 12 hours after dosing on Days 1, 7, and 14. Three dogs/sex/group were rotated in ascending order for each dose group. Plasma was isolated and analyzed for M4N by HPLC assay.

[8] = Stability of M4N ointment formulation; assay type: physicochemical; details: 2% wt/wt ointment in white petrolatum, 5 mL containers
Text: Two dosing schemes were used.

[9] = system: HSV-1
Procedure: The dorsal cutaneous guinea pig model system is a well-established model for HSV-1 infection.
In FIGS. 6A-6D, for topical treatment with M4N sections of shaved and depilated dorsal guinea pig skin were infected equally were infected with HSV-1.
McKrae strain). […] Treatments were administered twice daily and photogragphs were taken at day 6 post-infection. […] Regions 1 and 4 were infected with high levels of HSV-1 (1×10^8 pfu/mL), regions 2 and 5 were infected with moderate levels of HSV-1 (1×10^6 pfu/mL) and regions 3 and 6 were infected with low levels of HSV-1 (1×10^4 pfu/mL).

[10] = system: HSV-2; experiment: Mouse vaginal model of HSV-2 infection; assay type: in vivo, CF-1 mice; details: 20 mg/ml in Vaseline
Procedure: The efficacies of […] (FIG. 8A) and […] (FIG. 8A) against HSV-2 in a mouse vaginal model system have also been examined. […] At the end of three days, the vaginal lavages were collected from the washings of the vagina regions. The status of the vaginal HSV-2 infection and replication were examined by their cytopathic effects on cultured human foreskin fibroblast cells. Monitoring and scoring were carried out by three persons independently.

[11] = mouse, in vivo
[12] = system: acyclovir-resistant strains of HSV-1 (HSV-1^R); details: Chen et al., FIG. 3; cited from earlier work
[13] = in vivo, 45 mg/kg; cited from earlier work
[14] = system: HIV-1; experiment: microbe, parasite or virus in culture; details: Human immunodeficiency virus 1, IIIB, COS, read-out: Inhibitory Concentration (IC50 or EC50)
[15] = Fourteen day rabbit intravaginal irritation study
[16] = Human safety, tolerability and pharmacokinetic study of M4N vaginal ointment
[17] = all samples, Days 1 and 7, LOQ 0.4000
[18] = rabbit vaginal irritation study
[19] = fourteen women, M4N ointment/placebo crossover

Question: Which results are given for `COc1ccc(C[C@@H](C)[C@@H](C)Cc2ccc(OC)c(OC)c2)cc1OC` [M4N, tetra-O-methyl-nordihydroguaiaretic acid]?
Answer: inhibition of ICP4 gene transcription [1]: effectively inhibit ICP4 gene transcription; reduction of Sp1 regulated transcription of HPV E6/E7 [2]: dramatically reduces Sp1 regulated transcription of HPV E6/E7; IC50 ([3]; Human alphaherpesvirus 1, HSV-1 passage 1): 11.7 µM; IC50 ([3]; Human alphaherpesvirus 1, HSV-1 passage 2): 4.4 µM; IC50 ([3]; Human alphaherpesvirus 1, HSV-1 passage 3): 8.24 µM; IC50 ([3]; Human alphaherpesvirus 1, HSV-1 passage 4): 5.97 µM; IC50 ([3]; Human alphaherpesvirus 1, HSV-1 passage 5): 6.48 µM; IC50 ([3]; Human alphaherpesvirus 1, HSV-1 passage 6): 6.98 µM; IC50 ([3]; Human alphaherpesvirus 1, HSV-1 passage 7): 6.98 µM; IC50 ([3]; Human alphaherpesvirus 1, HSV-1 passage 8): 9.91 µM; IC50 ([3]; Human alphaherpesvirus 1, HSV-1 passage 9): 8.82 µM; IC50 ([3]; Human alphaherpesvirus 1, HSV-1 passage 10): 4.77 µM; change in IC50 against HSV-1 ([3]; following ten passages of virus): no increase in the IC50; IC50 [4]: 30 µM; histopathology of injection sites compared to DMSO vehicle sites ([5]; rabbit, in vivo, sc): slight increase in the intensity of reactions; effect on body weight or mortality ([5]; single s.c. injection, any dose group): No treatment-related effect; AUClast, females relative to males ([6]; Group 10, Day 14): ~4 times; plasma concentrations ([6]; Groups 8 and 9, Day 14, LOQ 0.4000): < 400 ng/mL; plasma concentrations [6, 17]: < 400 ng/mL; Tmax ([6]; female, females, Group 10, Day 14): 4 h; Cmax ([6]; female, females): 537 ng/mL; Tlast ([6]; females): 12 h; Tmax ([6]; male, males, Group 10, Day 14): 0.5 h; Cmax ([6]; male, males): 333 ng/mL; Tlast ([6]; males): 8 h; highest mean plasma concentration ([7]; Group 3 (50 mg/kg)): 1.004 µg/mL; AUClast, males relative to females ([7]; Group 3, Day 14): approximately 3 times; Tlast ([7]; Group 3 females): 4 h; highest mean plasma concentration ([7]; Group 4 (100 mg/kg)): 1.096 µg/mL; AUClast, males relative to females ([7]; Group 4, Day 14): ~2 times; plasma concentrations [7, 17]: < 400 ng/mL; concentration at 14 day ([7]; both sexes, beagle, dog, plasma, Group 2 (10 mg/kg), Day 14, read-out: plasma concentration, only sample greater than LOQ): 471 ng/mL; Tmax ([7]; both sexes, beagle, dog, plasma, Groups 3 and 4 except Group 3 males): 4 h; Cmax ([7]; both sexes, beagle, dog, plasma, all groups): 1000 ng/mL; median Tlast ([7]; except Group 3 females): 12 h; Tmax ([7]; male, beagle, dog, plasma, 50 mg/kg, Group 3 males): 8 h; time remained stable at room temperature [8]: 6 months; efficacy by time of first treatment after infection ([9]; 170 μM, first treated 10 min, 24 h, 48 h, 72 h after infection): better efficacy when treatment commenced shortly, within 24, after infection; inhibition of HSV-1 induced cutaneous lesion formation and viral shedding ([9]; topical application, guinea pig): effectively inhibited HSV-1 induced cutaneous lesion formation and viral shedding; toxicity or dermal irritation ([9]; topical, even at the highest soluble concentrations (150 mM)): no evidence of toxicity or dermal irritation; infection in the other 4 mice [10]: very little infection; mice fully infected, out of 8 mice [10]: 4; score of the fully infected mice [10]: 34; toxicity [11]: no toxicity; efficacy against acyclovir-resistant strains of HSV-1 [12]: retains complete efficacy; tolerability on intravenous administration [13]: generally good tolerability; IC50 [14]: 11 µM; early deaths ([15]; 2% w/w intravaginal, 1 mL once daily for 14 days): no early deaths; gross pathology (enlarged liver, irregularly shaped femur, rabbit 32092) ([15]; Group 2): incidental findings and not test article related; hematology vs controls ([15]; Study Day 15, Group 2 (2% w/w), attributed to individual animal variation): statistically significant lower absolute basophil count; clinical chemistry vs controls ([15]; Study Day 15, Group 2, attributed to individual animal variation): statistically significant lower ALT; cumulation after day 14 dosing ([15]; female rabbits, topical per vaginam): no resultant evidence of cumulation; blood concentrations seen ([15]; female rabbits, topical per vaginam, 4 hours post first dose and day 14): ≤ 10 ng/mL; start of absorption into the blood [15, 18]: 30 min; time of peak absorption into the blood [15, 18]: 4 h; effect on measured clinical pathology parameters ([15]; repeated intravaginal administration for 14 days): no apparent test article-related effect; tolerability ([16]; 90 mg (2% wt/wt) intravaginally once per day for 7 days, healthy women): well tolerated; detection in serum pharmacokinetic samples ([16]; days 1 and 7, 1, 2, 4, 6 hours after dosing, lower limit of detection 1 ng/mL): no detection of M4N; abdominal pain reported [16, 19]: 1 subjects; groin pain reported [16, 19]: 1 subjects; headaches reported [16, 19]: 3 subjects; tooth abscess reported [16, 19]: 1 subjects; upper respiratory tract infection reported [16, 19]: 2 subjects; application site irritation reported ([16]; might have been caused by the M4N ointment): 1 subjects
